Read-outs that look alike come from different tables or passages of the source. Square brackets hold non-standard residues; d marks the D form. Peptide text beside a SMILES is read from it. * marks the point of attachment. Butyryl = CCCC(=O)*
Tests used:
[1] = test system: X. fastidiosa subsp. fastidiosa IVIA 5387.2
[2] = test system: tobacco leaves; conditions: 150 µM; after 48 h
[3] = test system: horse erythrocytes; conditions: red cells of horse, 50 µM
[4] = test system: E. coli 0111:B4 LPS; type: biochemical, Escherichia coli

Row | Compound | Bactericidal activity Reduction in viability (Log N0/N) ([1]; 3.1 µM) | Bactericidal activity Level ([1]; 50 µM) | Phytotoxicity: diameter of the lesion [2] [mm] | Hemolytic activity (%) [3] [%] | LPS neutralization Ratio (treatment/NTC) [4] | Bactericidal activity Reduction in viability (Log N0/N) ([1]; 12.5 µM) | Bactericidal activity Reduction in viability (Log N0/N) ([1]; 50 µM)
1 | CCCC(=O)NCCCC[C@H](NC(=O)[C@H](CC(C)C)NC(=O)[C@@H](NC(=O)[C@H](CCCCN)NC(=O)[C@H](CCCCN)NC(=O)[C@@H](Cc1ccccc1)NC(=O)[C@H](CC(C)C)NC(=O)[C@H](CCCCN)NC(=O)[C@H](CCCCN)NC(C)=O)[C@@H](C)CC)C(=O)N[C@@H](Cc1ccc(O)cc1)C(=O)N[C@@H](CC(C)C)C(N)=O [BP499, Ac-KKLfKKILK(COC3H7)YL-NH2] | 0,63 Log N0/N | High (key: Very High: very high bactericidal activity (>2.5 log); High: high bactericidal activity (between 2.0 and 2.5 log); Moderate: a moderate activity (between 1.5 and 2.0 log); Low: low active (<1.5 log)) | 7 | 2 | 0,34 | – | –
2 | CCCC(=O)NCCCC[C@H](NC(C)=O)C(=O)N[C@@H](CCCCN)C(=O)N[C@@H](CC(C)C)C(=O)N[C@H](Cc1ccccc1)C(=O)N[C@@H](CCCCN)C(=O)N[C@@H](CCCCN)C(=O)N[C@H](C(=O)N[C@@H](CC(C)C)C(=O)N[C@@H](CCCCN)C(=O)N[C@@H](Cc1ccc(O)cc1)C(=O)N[C@@H](CC(C)C)C(N)=O)[C@@H](C)CC [BP545, Ac-K(COC3H7)KLfKKILKYL-NH2] | – | High (key: Very High: very high bactericidal activity (>2.5 log); High: high bactericidal activity (between 2.0 and 2.5 log); Moderate: a moderate activity (between 1.5 and 2.0 log); Low: low active (<1.5 log)) | 4 | 5 | 0,56 | 0,54 Log N0/N | –
3 | CCCCCC(=O)NCCCC[C@H](NC(=O)[C@H](Cc1ccc(O)cc1)NC(=O)[C@H](CCCCN)NC(=O)[C@H](CC(C)C)NC(=O)[C@@H](NC(=O)[C@H](CCCCN)NC(=O)[C@H](CCCCN)NC(=O)[C@@H](Cc1ccccc1)NC(=O)[C@H](CC(C)C)NC(=O)[C@H](CCCCN)NC(=O)[C@H](CCCCN)NC(C)=O)[C@@H](C)CC)C(N)=O [BP495, Ac-KKLfKKILKYK(COC5H11)-NH2] | – | High (key: Very High: very high bactericidal activity (>2.5 log); High: high bactericidal activity (between 2.0 and 2.5 log); Moderate: a moderate activity (between 1.5 and 2.0 log); Low: low active (<1.5 log)) | 6 | 0 | 0,55 | 0,03 Log N0/N | –
4 | CCCC(=O)NCCCC[C@H](NC(=O)[C@H](Cc1ccc(O)cc1)NC(=O)[C@H](CCCCN)NC(=O)[C@H](CC(C)C)NC(=O)[C@@H](NC(=O)[C@H](CCCCN)NC(=O)[C@H](CCCCN)NC(=O)[C@@H](Cc1ccccc1)NC(=O)[C@H](CC(C)C)NC(=O)[C@H](CCCCN)NC(=O)[C@H](CCCCN)NC(C)=O)[C@@H](C)CC)C(N)=O [BP496, Ac-KKLfKKILKYK(COC3H7)-NH2] (Ac-KKL[dF]KKILKYK(Butyryl)-NH2) | – | Low (key: Very High: very high bactericidal activity (>2.5 log); High: high bactericidal activity (between 2.0 and 2.5 log); Moderate: a moderate activity (between 1.5 and 2.0 log); Low: low active (<1.5 log)) | 4 | 0 | 0,92 | – | 0,69 Log N0/N
5 | CCCC(=O)NCCCC[C@H](NC(=O)[C@H](CCCCN)NC(=O)[C@H](CCCCN)NC(=O)[C@@H](Cc1ccccc1)NC(=O)[C@H](CC(C)C)NC(=O)[C@H](CCCCN)NC(=O)[C@H](CCCCN)NC(C)=O)C(=O)N[C@@H](CC(C)C)C(=O)N[C@@H](CCCCN)C(=O)N[C@@H](Cc1ccc(O)cc1)C(=O)N[C@@H](CC(C)C)C(N)=O [BP548, Ac-KKLfKKK(COC3H7)LKYL-NH2] | – | Low (key: Very High: very high bactericidal activity (>2.5 log); High: high bactericidal activity (between 2.0 and 2.5 log); Moderate: a moderate activity (between 1.5 and 2.0 log); Low: low active (<1.5 log)) | 6 | 0 | 0,65 | – | 0,28 Log N0/N
